Assay results taken from patent US20050171424A1, “Methods for imaging the lymphatic system using dendrimer-based contrast agents” (The Gov. of the USA as rep. by the Secretary of the Dept. …, priority 2004, published 2005).

Columns and labels:
[1] = system: lymphatic drainage from tumor-bearing mammary glands; experiment: Mammo-MR-lymphangiography of tumor-bearing mammary glands, BALB-neuT transgenic breast cancer model; type: in vivo, BALB-neuT transgenic mice; conditions: FIG. 4
Method: The breast-tumor bearing mice were thirty one week-old BALB-neuT mice (n=3) transgenic for the rat HER-2/neu (Erb B2) oncogene under the control of the mouse mammary tumor virus promotor (MMTV). […] BALB-neuT mice were used because of their spontaneous development of bilateral breast cancers and lymph node metastases. […] Most metastatic lymph nodes from the mouse mammary pad localize in the neck, lateral thoracic, or axillary region.
Mice were anesthetized with 1.15 mg sodium pentobarbital (Dainabot, Osaka, Japan), and then injected with 0.15-0.24 μmol Gd/5-8 μL of the PAMAM-G6 contrast agent into normal mammary glands or mammary tissue surrounding a tumor (peritumorally). Dynamic micro-MR images were obtained using a 1.5-Tesla superconductive magnet unit (Signa LX, General Electric Medical System, Milwaukee, Wis.) with a birdcage type coil of 3 cm diameter fixed by a custom made coil holder. [Single and double “breast coils” used for imaging breasts in humans are commercially available, for example, from GE Medical Systems (Milwaukee, Wis.) and are routinely available in outpatient MRI centers] The mice were wrapped with gauze to stabilize their body temperature and were placed at the center of the coils. […]

[2] = system: draining lymph nodes and lymphatic vessels; experiment: 3D dynamic mammo-lymphangiograms after sequential injection of GPDM and PAMAM-G6 into the mammary gland; type: in vivo, athymic nu/nu mice; conditions: 0.15 μmol Gd into mammary gland; GPDM imaged at 12, 24, 36 min, then PAMAM-G6 injected 36 minutes following GPDM
Method: Mice were anesthetized with 1.15 mg sodium pentobarbital (Dainabot, Osaka, Japan), and then injected with 0.15-0.24 μmol Gd/5-8 μL of the PAMAM-G6 contrast agent into normal mammary glands or mammary tissue surrounding a tumor (peritumorally). Dynamic micro-MR images were obtained using a 1.5-Tesla superconductive magnet unit (Signa LX, General Electric Medical System, Milwaukee, Wis.) with a birdcage type coil of 3 cm diameter fixed by a custom made coil holder. [Single and double “breast coils” used for imaging breasts in humans are commercially available, for example, from GE Medical Systems (Milwaukee, Wis.) and are routinely available in outpatient MRI centers] The mice were wrapped with gauze to stabilize their body temperature and were placed at the center of the coils. Athymic nu/nu mice (n=4) were anesthetized and injected with 0.15 μmol Gd of GPDM into the mammary gland, and images were taken 12, 24, and 36 min after injection. Following these three images, these mice were subsequently injected with 0.15 μmol Gd of PAMAM-G6 contrast agent in the mammary gland, and images were taken at 12 and 24 min post-injection of the PAMAM-G6 contrast agent (at 48 and 60 min post-injection of GPDM).

[3] = system: Draining Lymph Nodes (LNs) From the Normal Breast Tissue; experiment: Dynamic micro-MR mammo-lymphangiography of lymphatic drainage from the normal mammary gland; type: in vivo, mice (Balb/c, athymic nu/nu)
Method: (§1) Mice were anesthetized with 1.15 mg sodium pentobarbital (Dainabot, Osaka, Japan), and then injected with 0.15-0.24 μmol Gd/5-8 μL of the PAMAM-G6 contrast agent into normal mammary glands or mammary tissue surrounding a tumor (peritumorally). Dynamic micro-MR images were obtained using a 1.5-Tesla superconductive magnet unit (Signa LX, General Electric Medical System, Milwaukee, Wis.) with a birdcage type coil of 3 cm diameter fixed by a custom made coil holder. [Single and double “breast coils” used for imaging breasts in humans are commercially available, for example, from GE Medical Systems (Milwaukee, Wis.) and are routinely available in outpatient MRI centers] The mice were wrapped with gauze to stabilize their body temperature and were placed at the center of the coils.
In order to evaluate the lymphatic drainage from the normal mammary gland of either Balb/c mice (n=5) or athymic nu/nu mice (n=5), 3D-fast spoiled gradient echo [3D-fastSPGR (efgre3d package; Signa Horizon, GE); repetition time/echo time 19.2/7.2 msec; inversion time 47 msec; 31.2 kHz, flip angle 30°, 4 excitations; 36 slice encoding steps; scan time 4 min 49 seconds] with chemical shift fat-suppression was used 6, 12, 18, 24, 30, 36, 42, and 48 min after injection of the contrast agent. The coronal images were reconstructed with 0.6-mm section thickness every 0.3-mm. The FOV was 8×4 cm and the size of the matrix was 512×256. The slice data were processed into 3D images using the maximum intensity projection (MIP) method with the same window and level (window 3500 and level 2100) (Advantage Windows, General Electric Medical System). After imaging, the mice were sacrificed by carbon dioxide inhalation.

[4] = Distribution and survival properties of the dendrimer conjugates; conditions: in vivo
[5] = system: lymphatic drainage from PT-18 tumor-bearing mammary gland; experiment: Mammo-MR-lymphangiography of PT-18 tumor xenograft-bearing mammary gland; type: in vivo, athymic nu/nu mice; conditions: FIG. 5
Method: Tumor xenografts of PT-18, a murine mast cell line, were introduced into the left mammary pad in athymic nu/nu mice. When 10^7 PT-18 cells were injected in the left mammary pad of 10 athymic nu/nu mice, six mice developed tumor masses in the left axillary lymph nodes within three weeks.
as §1
In order to evaluate lymphatic drainage from six tumor-bearing mammary glands of three BALB-neuT transgenic mice or the PT-18 tumor-bearing mammary gland of athymic nu/nu mice (n=6), 2D fast-inversion recovery [2D-fastIR; repetition time/echo time 8000/96 msec; inversion time 150 msec; 31.2 kHz, 2 excitations; 16 slices; scan time 2 min 16 seconds] was employed to evaluate the tumor localization before injection of PAMAM-G6 contrast agent. The coronal images were reconstructed with 1.5 mm section thickness without a gap. The FOV was 8×4 cm and the size of matrix was 512×256. The slice data were processed into 3D images using the MIP method with the same window and level (window 3500 and level 2100) (Advantage Windows, GE). Then images were obtained with the 3D-fastSPGR sequence as described above.

[6] = 6 min after injection into normal mammary gland
[7] = 12 min after injection into normal mammary gland
[8] = 18 min after injection into normal mammary gland
[9] = 24 min after injection into normal mammary gland
[10] = 30 min after injection into normal mammary gland
[11] = 36 min after injection into normal mammary gland
[12] = 42 min after injection into normal mammary gland
[13] = 48 min after injection into normal mammary gland

## PAMAM-G6D-(Gd-1B4M)256 dendrimer conjugate
[1]
  Imaging of enlarged lymph nodes containing tumor metastases and dilated lymphatic vessels: clearly imaged
[1]; peritumoral injection
  Visualization of flow within the draining lymphatic vessels: readily visualized
[2]
  Visualization of draining lymph nodes and lymphatic vessels (FIG. 3): clearly visualized
[3]; [6]
  Visualized LNs/Total Examined LNs, Axillary LN: 10/10
  Visualized LNs/Total Examined LNs, Lateral thoracic LN: 0/10
  Visualized LNs/Total Examined LNs, Superficial cervical LN: 1/10
[3]; [7]
  Visualized LNs/Total Examined LNs, Axillary LN: 10/10
  Visualized LNs/Total Examined LNs, Lateral thoracic LN: 1/10
  Visualized LNs/Total Examined LNs, Superficial cervical LN: 1/10
[3]; [8]
  Visualized LNs/Total Examined LNs, Axillary LN: 10/10
  Visualized LNs/Total Examined LNs, Lateral thoracic LN: 2/10
  Visualized LNs/Total Examined LNs, Superficial cervical LN: 1/10
[3]; [9]
  Visualized LNs/Total Examined LNs, Axillary LN: 10/10
  Visualized LNs/Total Examined LNs, Lateral thoracic LN: 4/10
  Visualized LNs/Total Examined LNs, Superficial cervical LN: 2/10
[3]; [10]
  Visualized LNs/Total Examined LNs, Axillary LN: 10/10
  Visualized LNs/Total Examined LNs, Lateral thoracic LN: 4/10
  Visualized LNs/Total Examined LNs, Superficial cervical LN: 2/10
[3]; [11]
  Visualized LNs/Total Examined LNs, Axillary LN: 10/10
  Visualized LNs/Total Examined LNs, Lateral thoracic LN: 5/10
  Visualized LNs/Total Examined LNs, Superficial cervical LN: 3/10
[3]; [12]
  Visualized LNs/Total Examined LNs, Axillary LN: 10/10
  Visualized LNs/Total Examined LNs, Lateral thoracic LN: 6/10
  Visualized LNs/Total Examined LNs, Superficial cervical LN: 3/10
[3]; [13]
  Visualized LNs/Total Examined LNs, Axillary LN: 10/10
  Visualized LNs/Total Examined LNs, Lateral thoracic LN: 6/10
  Visualized LNs/Total Examined LNs, Superficial cervical LN: 3/10
[3]; initial (6 min) time point
  Mice in which the axillary lymph node and its afferent lymphatic vessels were visualized: all 10 mice
[4]
  Survival period in the lymph system: intermediate survival period in the lymph system
[5]
  Enhancement of axillary lymph node tissue with metastatic tumor cells: did not shown enhancement
  Enhancement of the lymphatic vessel flowing into the lymph node with a metastatic tumor: dilated and showed enhancement
[5]; peritumoral injection
  Visualization of flow within the draining lymphatic vessels: readily visualized
